Here are results for 4 compounds from patent US4755523A, “Abietamide derivatives” (Nippon Shinyaku Co., Ltd., priority 1986, dated 1988).

Assay [1] relates to cholesterol loaded rats (serum total cholesterol). In words: Effect in cholesterol loaded rats (HCD test), serum total cholesterol increase-inhibiting rate. In kind it is in vivo, Male Wister strain rats. The note with it: high-cholesterol food containing 0.03% of test compound, 3 days, serum TC, ** significant at 1% level. How it is done: Test method: Male Wister strain rats of 4 weeks age (six rats per group) were used. They were fed with a high-cholesterol food containing 0.03% of the compound to be tested. After 3 days' feeding, they were fasted overnight, blood was collected therefrom, and the total cholesterol level (TC) in serum was measured. A group fed with a high cholesterol food containing no test compound and groups fed with normal synthetic food were called control group and normal groups, respectively. The serum TC increase-inhibiting rate (%) of the test compound was calculated by the following expression: [formula]

Assay [2] deals with Triton-induced hyperlipemic mice (serum total cholesterol). In words: Effect in Triton-induced hyperlipemic mice (Triton test), inhibiting rate against serum total cholesterol increase. In kind it is in vivo, Male ICR-strain mice. To be noted: Triton WR-1339 500 mg/kg i.v., test compound 300 mg/kg oral, serum TC after 24 hours, ** significant at 1% level. How it is done:
Test method: Male ICR-strain mice of 9 weeks age (6 to 9 mice per group) were used. A solution of Triton WR-1339 in physiological saline solution was injected from tail vein at the dose of 500 mg/kg whereupon hyperlipemia was induced. Physiological saline solution was injected to normal group intravenously. Immediately thereafter, 300 mg/kg of the test compound suspended in 0.5% methylcellulose (MC) was given orally. The group given with 0.5% MC solution was called a control group. After fasting for 24 hours, head was cut, blood was taken, and the TC value of the resulting serum was measured. The inhibiting rate (%) against serum TC increase of the test compound was calculated by the following expression: [formula]

Assay [3] has as its system biosynthesis of cholesterol. The note with it: Japanese Laid Open Application Sho-51/026864; cited from earlier work.
The subject of assay [4] is absorption of extrinsic cholesterol from the intestinal tract. To be noted: Japanese Laid Open Application Sho-51/026864; cited from earlier work.

As to `CC(C)C1CCC2=C(CCC3C(C)(C(=O)Nc4ccnn4-c4ccccc4)CCCC23C)C1` (stereo not shown) [Example 1, N-(1-phenylpyrazol-5-yl)-Δ^8-dihydroabietamide], the “Inhibitory Rate for Cholesterol Increase (HCD Test)” value in assay [1] was found to be 115%. In addition, the “Inhibitory Rate for Cholesterol Increase (Triton Test)” value in assay [2] is reported as 32%.

Take `Cc1csc(NC(=O)C2(C)CCCC3(C)C4=C(CCC23)CC(C(C)C)CC4)n1` (stereo not shown) [Example 4, N-(4-Methylthiazol-2-yl)-Δ^8-dihydroabietamide]: the “Inhibitory Rate for Cholesterol Increase (HCD Test)” value in assay [1] was determined as 102%. Besides, the “Inhibitory Rate for Cholesterol Increase (Triton Test)” value in assay [2] amounted to 68%.

As to `Cc1cccc(C)c1NC(=O)C1(C)CCCC2(C)C3=C(CCC12)CC(C(C)C)CC3` (stereo not shown) [N--(2,6-Dimethylphenyl)-Δ^8-dihydroabietamide, reference compound], in assay [3], the “inhibition of the biosynthesis of cholesterol” value is “do not inhibit the biosynthesis of cholesterol”. Further, in assay [4], the “inhibition of absorption of extrinsic cholesterol from the intestinal tract” value is reported as “inhibit absorption of extrinsic cholesterol from the intestinal tract”. The “Inhibitory Rate for Cholesterol Increase (HCD Test)” value in assay [1] is on record as 100%. Moreover, in assay [2], the “Inhibitory Rate for Cholesterol Increase (Triton Test)” value is recorded as -8%.

Take `CC(C)C1CCC2=C(CCC3C(C)(C(=O)Nc4nccs4)CCCC23C)C1` (stereo not shown) [Example 3, N-(Thiazol-2-yl)-Δ^8-dihydroabietamide]: the “Inhibitory Rate for Cholesterol Increase (HCD Test)” value in assay [1] is given as 47%. Besides, the “Inhibitory Rate for Cholesterol Increase (Triton Test)” value in assay [2] turned out to be 75%.
